Assay results: PMC10991509, “A phase I study of ATR inhibitor gartisertib (M4344) as a single agent and in combination with carboplatin in patients with advanced solid tumours” (British Journal of Cancer, 2024)

What was measured:
[1] = test system: variant allele frequency of somatic alterations in ctDNA; assay: Molecular response: variant allele frequency in ctDNA; assay type: in vivo, human; settings: for patients with reduced variant allele frequency of the selected biomarkers: cohort C, 250 mg QD
Description: Exploratory objectives were to assess ATR inhibition and DNA damage by measuring phosphorylation of the Ser-139 residue of the histone variant H2AX (ɣ-H2AX) post-treatment in peripheral blood mononuclear cells (cohorts A2 and C), describe the mutational landscape and its relationship to BOR in patients with selected biomarkers (cohort C) and to determine changes in allele frequencies in mutations of interest and their association with clinical benefit (molecular response; cohorts A2 and C). Further details on the definitions of LOF mutations and methods of biomarker collection are described in the Supplementary Materials.
Use of ATRX/DAXX mutations as proxies for ALT-positive tumors enabled use of a single next-generation sequencing test for all biomarkers in this study. Loss of function mutations were defined as loss of the gene locus, a mutation defined as pathogenic in the ClinVar database or a mutation in one of the following categories: splice_acceptor_variant, splice_donor_variant, stop_gained, frameshift_variant, stop_lost or start_lost. Archival formalin-fixed paraffin-embedded tumor biopsies and serial blood samples collected in two 10 mL Streck tubes (Streck) were analyzed for the presence of genetic alterations in tumor DNA and circulating tumor DNA (ctDNA) with the FoundationOne® CDx NGS assay (Foundation Medicine, Cambridge, Massachusetts, US, FoundationOne®CDx Technical Information. https://www.accessdata.fda.gov/cdrh_docs/pdf17/P170019S006C.pdf) and Guardant Health OMNI assay (Guardant, Palo Alto, CA, US. Technical Information https://www.accessdata.fda.gov/cdrh_docs/pdf20/P200010C.pdf), respectively.
Molecular responses were measured in ctDNA as best-on-treatment change in variant allele frequency of somatic alterations with baseline value ≥0.3%.

[2] = test system: patients with advanced solid tumours; assay: Phase I safety and tolerability (TEAEs, DLTs, MTD/RP2D); assay type: in vivo
Description: This phase I, multicenter, multicohort, open-label, first-in-human study (NCT02278250) assessed the safety, tolerability, pharmacokinetics (PK) and antitumour activity of orally administered gartisertib alone or in combination with intravenous carboplatin in patients with advanced solid tumours for whom no standard therapy was available.
The primary objectives of cohorts A and A2 were to evaluate safety and tolerability and determine the maximum tolerated dose (MTD) and/or recommended phase II dose (RP2D) of escalating doses of gartisertib monotherapy. In cohort B1, the primary objective was to determine the safety and tolerability as well as the MTD and/or RP2D of escalating doses of gartisertib in combination with carboplatin. The primary endpoints for these three study cohorts were safety parameters (AEs, clinical laboratory values, vital signs, and electrocardiogram [ECG] assessment) as well as the MTD and/or RP2D. The Supplementary Materials provide further details regarding the safety analysis, including determination of MTD, as well as the definitions of dose-limiting toxicities (DLTs; Supplementary Table S1). Please note that in this study increased blood bilirubin was defined as a laboratory finding whereas hyperbilirubinemia was a clinical diagnosis based on clinical symptoms.
Gartisertib safety was determined via reporting, recording, and analysis of Baseline Medical Conditions, AEs, physical examination data including vital signs, electrocardiograms and laboratory tests. Medical history and physical examination data were collected during the study. Any potential AE was reported and comprehensively evaluated throughout the study. AE severity was assessed according to the National Cancer Institute – Common Terminology Criteria for Adverse Events (NCI–CTCAE) version 4.0 (cohorts A and B1) or 5.0 (cohorts A2 and C). Any clinical AE with a grade of 4 or 5 was considered to be a serious AE (SAE). A laboratory AE of grade 4 was considered serious if it met certain SAE criteria. […] Important medical events that may not result in death, be life-threatening, or require hospitalization were considered to be SAEs when, based upon appropriate medical judgment, they may jeopardize the patient or may require medical or surgical intervention to prevent one of the outcomes listed above.
Patients were monitored throughout treatment cycles for DLTs. DLTs were defined using the NCI CTCAE (cohorts A and B1: version 4.0; cohort A2: version 5.0) and were defined as being related or possibly related to treatment.
Cohorts A, A2, and B1: With respect to determination of the MTD, the next dose level to be investigated was decided at a Dose Escalation Meeting and was based on the available safety data from the previous cohort. The MTD of gartisertib was primarily determined by DLTs that occurred up to and including the end of the DLT period. Please see Table S1 for definitions of DLTs. In cohorts A and B1, the gartisertib MTD was determined according to the NCI-CTCAE version 4.0 and in cohorts A2 and […], the gartisertib MTD was defined according to the NCI-CTCAE version 5.0. If ≥2 out of up to six participants at the same dose level have a DLT, the gartisertib MTD was determined as the dose level below or at an intermediate dose level. The exact dose was determined following a discussion regarding all the relevant toxicity, including DLTs that occur in prior cohorts beyond the end of the DLT period. An RP2D was determined for each applicable cohort of the study; however, it may not be higher than the MTD.

## Nc1nn2cc(F)cnc2c1C(=O)Nc1cncc(F)c1N1CCC(C(=O)N2CCN(C3COC3)CC2)CC1 [gartisertib, Gartisertib]
[1]; cohort A2, 100 mg BID
  patients with TP53-reduced variant allele frequency: 0/2
[1]; cohort A2, 150 mg QD
  patients with TP53-reduced variant allele frequency: 1/2
[1]; cohort A2, 250 mg QD (RP2D)
  patients with TP53-reduced variant allele frequency: all six
[1]; cohort A2, 350 mg QD
  patients with TP53-reduced variant allele frequency: 0/4
[1]; cohort A2, patients achieving SD as best response
  patients with TP53-reduced variant allele frequency: 4/5
[1]; cohort A2, patients with PD
  patients with TP53-reduced variant allele frequency: 2/6
[1]; SD as best response
  patients with reduced variant allele frequency of the selected biomarkers: all four
[1]; patients with PD
  patients with reduced variant allele frequency of the selected biomarkers: 2/5
[2]; human, in vivo
  TEAE Constipation, Grade 3/4: 0 (0.0) n (%)
  TEAE Decreased appetite, Grade 3/4: 0 (0.0) n (%)
  TEAE Diarrhoea, Grade 3/4: 0 (0.0) n (%)
  TEAE Disease progression, Grade 3/4: 0 (0.0) n (%)
  TEAE Disease progression, any grade: 0 (0.0) n (%)
  TEAE Dyspnoea, Grade 3/4: 0 (0.0) n (%)
  TEAE Headache, Grade 3/4: 0 (0.0) n (%)
  TEAE Hypokalaemia, Grade 3/4: 0 (0.0) n (%)
  TEAE Hypokalaemia, any grade: 0 (0.0) n (%)
  TEAE Hypomagnesaemia, Grade 3/4: 0 (0.0) n (%)
  TEAE Hypomagnesaemia, any grade: 0 (0.0) n (%)
  TEAE Jaundice, Grade 3/4: 0 (0.0) n (%)
  TEAE Jaundice, any grade: 0 (0.0) n (%)
  TEAE Neutropenia, Grade 3/4: 0 (0.0) n (%)
  TEAE Peripheral oedema, Grade 3/4: 0 (0.0) n (%)
  TEAE Peripheral oedema, any grade: 0 (0.0) n (%)
  TEAE Thrombocytopenia, Grade 3/4: 0 (0.0) n (%)
  TEAE Thrombocytopenia, any grade: 0 (0.0) n (%)
  TEAE anaemia: 61.5%
  TEAE fatigue: 47.6%
  TEAE increased blood bilirubin: 61.5%
  TEAE nausea: 66.7%
  abdominal pain leading to gartisertib discontinuation: 7.7%
  hepatic failure leading to gartisertib discontinuation: 7.7%
  increased ALT leading to gartisertib discontinuation: 7.7%
  increased blood bilirubin leading to gartisertib discontinuation: 11.9%
  nausea leading to gartisertib discontinuation: 7.1%
  patients experiencing a gartisertib-related TEAE: ≥ 92.3%
  patients who experienced at least one serious TEAE: ≥ 50%
  patients with grade 3 or 4 changes in laboratory parameters: ≤ 20%
  recommended phase II dose (RP2D): 250 mg QD
  serious TEAE related to gartisertib: 19.0-37.5%
[2]; in vivo
  DLTs at QD doses subsequently investigated: no additional DLTs observed
  changes in ECG parameters: no clinically relevant changes
  changes in vital signs: no clinically relevant changes
  gartisertib dose reduction due to a treatment-related TEAE: eight
  patients with ≥1 DLT: five
  tolerability of gartisertib 1200 mg twice weekly: not tolerated
[2]; six deaths reported across all cohorts
  deaths considered related to gartisertib or carboplatin: none
